From doi:10.1101/2025.11.06.687025v1 (biorxiv, 2025)

Experiments:
[1] = target: T1, mouse serotonin 5-HT2C receptor (Mus musculus, UniProt P34968); assay: Fura-2 Ca2+ imaging, fraction of responsive HEK/5-HT2C cells, Hill fit; format: cell-based
T1 construct: gene Htr2c; recombinant receptor stably expressed in HEK293 (HEK/5-HT2C cells)
T1 sequence (P34968 33-459): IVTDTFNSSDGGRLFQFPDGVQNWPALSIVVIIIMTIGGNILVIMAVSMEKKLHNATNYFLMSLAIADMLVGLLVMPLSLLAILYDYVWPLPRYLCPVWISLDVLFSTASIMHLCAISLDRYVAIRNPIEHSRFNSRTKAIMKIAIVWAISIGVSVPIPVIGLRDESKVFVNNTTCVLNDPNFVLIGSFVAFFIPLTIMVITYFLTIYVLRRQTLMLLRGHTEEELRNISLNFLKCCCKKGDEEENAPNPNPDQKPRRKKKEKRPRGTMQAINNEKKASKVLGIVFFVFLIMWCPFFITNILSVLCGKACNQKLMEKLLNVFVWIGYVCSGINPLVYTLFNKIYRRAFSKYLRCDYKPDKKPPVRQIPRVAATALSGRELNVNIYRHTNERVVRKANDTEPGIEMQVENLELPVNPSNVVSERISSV

[2] = target: T1, mouse serotonin 5-HT2C receptor; assay: as above; format: cell-based; remark: listed apart in the source

Row | Structure (SMILES) | IC50 [1] | EC50 [2]
1 | O=c1cc(N2CCOCC2)oc2c(-c3ccccc3)cccc12 [LY294002] | 1.2 µM | 
2 | O=c1cc(N2CCNCC2)oc2c(-c3ccccc3)cccc12 [LY303511] |  | 2.5 µM
